{"source": "ChEMBL document CHEMBL6092185", "about": "“Discovery of glycosidated glycyrrhetinic acid derivatives: Natural product-based soluble epoxide hydrolase inhibitors” (Eur J Med Chem, 2024)", "key": {"[1]": {"species": "Mus musculus", "assay": "animal or person", "conditions": "BALB/c, 6 h, read-out: INH", "description": "Anti-inflammatory activity in BALB/c mouse model of Carrageenan-induced paw edema assessed as inhibition of edema at 5 mg/kg, ip measured upto 6 hrs relative to control"}, "[2]": {"target": "T1, Bifunctional epoxide hydrolase 2 (Homo sapiens, UniProt P34913)", "T1 sequence (P34913 whole entry)": "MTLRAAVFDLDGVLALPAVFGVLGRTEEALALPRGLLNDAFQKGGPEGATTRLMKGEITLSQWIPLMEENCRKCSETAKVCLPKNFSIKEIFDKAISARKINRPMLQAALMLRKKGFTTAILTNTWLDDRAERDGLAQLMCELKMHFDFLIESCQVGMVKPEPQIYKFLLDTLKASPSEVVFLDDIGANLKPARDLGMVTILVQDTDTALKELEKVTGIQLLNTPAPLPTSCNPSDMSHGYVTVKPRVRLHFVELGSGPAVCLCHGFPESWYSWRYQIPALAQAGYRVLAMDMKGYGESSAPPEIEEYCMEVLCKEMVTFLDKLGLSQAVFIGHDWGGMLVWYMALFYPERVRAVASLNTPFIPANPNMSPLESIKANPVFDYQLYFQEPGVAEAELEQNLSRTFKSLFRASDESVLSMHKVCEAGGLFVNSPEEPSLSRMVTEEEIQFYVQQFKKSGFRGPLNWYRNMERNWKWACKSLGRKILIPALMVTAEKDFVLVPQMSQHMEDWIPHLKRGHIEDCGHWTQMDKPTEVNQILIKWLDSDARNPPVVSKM", "assay": "Inhibition of sEH (unknown origin) using PHOME as substrate incubated for 1 hr by fluorimetric assay"}, "[3]": {"target": "T2, Bifunctional epoxide hydrolase 2 (Mus musculus, UniProt P34914)", "T2 sequence (P34914 whole entry)": "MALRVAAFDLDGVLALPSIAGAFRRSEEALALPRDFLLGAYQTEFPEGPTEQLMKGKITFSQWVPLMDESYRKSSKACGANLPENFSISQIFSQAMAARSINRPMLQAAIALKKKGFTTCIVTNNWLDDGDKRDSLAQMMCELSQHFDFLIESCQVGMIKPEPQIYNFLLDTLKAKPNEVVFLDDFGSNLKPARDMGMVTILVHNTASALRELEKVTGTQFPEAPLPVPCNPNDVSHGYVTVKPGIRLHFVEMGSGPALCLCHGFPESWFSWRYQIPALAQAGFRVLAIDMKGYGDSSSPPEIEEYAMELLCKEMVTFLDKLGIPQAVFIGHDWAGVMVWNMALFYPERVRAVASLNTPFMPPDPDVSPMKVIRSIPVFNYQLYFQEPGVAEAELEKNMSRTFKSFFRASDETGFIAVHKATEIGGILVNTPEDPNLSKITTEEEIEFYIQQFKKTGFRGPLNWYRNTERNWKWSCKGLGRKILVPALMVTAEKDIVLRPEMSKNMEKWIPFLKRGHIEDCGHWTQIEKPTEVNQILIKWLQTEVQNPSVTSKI", "assay": "Inhibition of C57BL/6J mouse cortex sEH using 14,15-EET as substrate preincubated for 15 mins followed by substrate addition measured after 2 hrs by UPLC-MS/MS analysis"}, "[4]": {"assay": "Cytotoxicity against HEK293T cells incubated overnight by CCK8 assay", "conditions": "human"}, "[5]": {"assay": "Cytotoxicity against human HepG2 cells incubated overnight by CCK8 assay"}, "[6]": {"species": "Mus musculus", "assay": "animal or person", "conditions": "BALB/c, 4 h, read-out: INH"}, "[7]": {"assay": "in vivo", "conditions": "BALB/c, mouse, liver, po, 20 mg/kg", "description": "Cmax in BALB/c mouse liver at 20 mg/kg, IG measured upto 24 hrs by LC-MS/MS analysis"}, "[8]": {"assay": "in vivo", "conditions": "BALB/c, mouse, liver/plasma, po, 20 mg/kg", "description": "Ratio of Cmax in BALB/c mouse liver to plasma at 20 mg/kg, IG measured upto 24 hrs by LC-MS/MS analysis"}, "[9]": {"assay": "in vivo", "conditions": "BALB/c, mouse, plasma, po, 20 mg/kg", "description": "Cmax in BALB/c mouse plasma at 20 mg/kg, IG measured upto 24 hrs by LC-MS/MS analysis"}, "[10]": {"assay": "in vivo", "conditions": "BALB/c, mouse, liver/plasma, po, 20 mg/kg", "remark": "listed apart in the source", "description": "Ratio of AUC (0 to 24 hrs) in BALB/c mouse liver to plasma at 20 mg/kg, IG measured upto 24 hrs by LC-MS/MS analysis"}, "[11]": {"assay": "in vivo", "conditions": "BALB/c, mouse, plasma, po, 20 mg/kg", "remark": "listed apart in the source", "description": "AUC (0 to 24 hrs) in BALB/c mouse plasma at 20 mg/kg, IG measured upto 24 hrs by LC-MS/MS analysis"}, "[12]": {"species": "Mus musculus", "assay": "animal or person", "conditions": "BALB/c, po, 1 h, read-out: INH", "description": "Anti-inflammatory activity in BALB/c mouse model of Carrageenan-induced paw edema assessed as inhibition of edema at 20 mg/kg, IG measured after 1 hr relative to control"}, "[13]": {"species": "Mus musculus", "assay": "animal or person", "conditions": "BALB/c, po, 6 h, read-out: INH", "description": "Anti-inflammatory activity in BALB/c mouse model of Carrageenan-induced paw edema assessed as inhibition of edema at 20 mg/kg, IG measured upto 6 hrs relative to control"}, "[14]": {"species": "Mus musculus", "assay": "animal or person", "conditions": "BALB/c, 2 h, read-out: INH", "description": "Anti-inflammatory activity in BALB/c mouse model of Carrageenan-induced paw edema assessed as inhibition of edema at 5 mg/kg, ip measured after 2 hrs relative to control"}, "[15]": {"species": "Mus musculus", "assay": "animal or person", "conditions": "BALB/c, 3 h, read-out: INH", "description": "Anti-inflammatory activity in BALB/c mouse model of Carrageenan-induced paw edema assessed as inhibition of edema at 5 mg/kg, ip measured after 3 hrs relative to control"}}, "data": [{"smiles": "CC[C@H](C)C(=O)N1CCC(NC(=O)Nc2ccc(OC(F)(F)F)c(F)c2)CC1", "values": [{"measurement": "inhibition in vivo at 5 mg/kg", "setting": "[1]", "value": 39.2, "unit": "%"}]}, {"smiles": "C[C@H]1[C@H](C)CC[C@]2(C(=O)O)CC[C@]3(C)C(=CC[C@@H]4[C@@]5(C)CC[C@H](O)C(C)(C)[C@@H]5CC[C@]43C)[C@H]12", "note": "[URSOLIC ACID]", "values": [{"measurement": "IC50", "setting": "[2]", "value": 11100, "unit": "nM"}]}, {"smiles": "CC1(C)[C@@H](O)CC[C@]2(C)[C@H]3C(=O)C=C4[C@H]5C[C@@](C)(CNC(=O)NCC6CCOCC6)CC[C@]5(C)CC[C@@]4(C)[C@]3(C)CC[C@@H]12", "values": [{"measurement": "IC50", "setting": "[3]", "value": 5.2, "unit": "nM"}, {"measurement": "IC50", "setting": "[4]", "value": "> 50000", "unit": "nM"}, {"measurement": "IC50", "setting": "[5]", "value": "> 50000", "unit": "nM"}, {"measurement": "inhibition in vivo at 20 mg/kg", "setting": "[6]", "value": 28.4, "unit": "%"}]}, {"smiles": "CC1(C)[C@@H](O[C@H]2O[C@H](CO)[C@@H](O)[C@H](O)[C@@H]2O)CC[C@]2(C)[C@H]3C(=O)C=C4[C@H]5C[C@@](C)(CNC(=O)NCC6CCOCC6)CC[C@]5(C)CC[C@@]4(C)[C@]3(C)CC[C@@H]12", "values": [{"measurement": "IC50", "setting": "[3]", "value": 121, "unit": "nM"}, {"measurement": "Cmax at 24 h", "setting": "[7]", "value": 2140, "unit": "ng/g"}, {"measurement": "Kp at 24 h", "setting": "[8]", "value": 11}, {"measurement": "Cmax at 24 h", "setting": "[9]", "value": 194, "unit": "ng/mL"}, {"measurement": "Kp at 24 h", "setting": "[10]", "value": 8.91}, {"measurement": "IC50", "setting": "[4]", "value": 46600, "unit": "nM"}, {"measurement": "IC50", "setting": "[5]", "value": 17600, "unit": "nM"}, {"measurement": "AUC(0-t) at 24 h", "setting": "[11]", "value": 655, "unit": "ng·h/mL"}]}, {"smiles": "CCC(=O)N1CCC(CNC(=O)NC[C@@]2(C)CC[C@]3(C)CC[C@]4(C)C(=CC(=O)[C@@H]5[C@@]6(C)CC[C@H](O[C@H]7O[C@H](CO)[C@@H](O)[C@H](O)[C@@H]7O)C(C)(C)[C@@H]6CC[C@]54C)[C@@H]3C2)CC1", "values": [{"measurement": "IC50", "setting": "[3]", "value": 182, "unit": "nM"}, {"measurement": "inhibition in vivo at 20 mg/kg", "setting": "[12]", "value": 38.4, "unit": "%"}]}, {"smiles": "CC1(C)[C@@H](O[C@H]2OC[C@@H](O)[C@@H](O)[C@@H]2O)CC[C@]2(C)[C@H]3C(=O)C=C4[C@H]5C[C@@](C)(CNC(=O)NCC6CCOCC6)CC[C@]5(C)CC[C@@]4(C)[C@]3(C)CC[C@@H]12", "values": [{"measurement": "IC50", "setting": "[3]", "value": 86.1, "unit": "nM"}, {"measurement": "inhibition in vivo at 20 mg/kg", "setting": "[13]", "value": 37.4, "unit": "%"}]}, {"smiles": "CC1(C)[C@@H](O[C@@H]2O[C@H](CO)[C@@H](O)[C@H](O)[C@H]2O)CC[C@]2(C)[C@H]3C(=O)C=C4[C@H]5C[C@@](C)(CNC(=O)NCC6CCOCC6)CC[C@]5(C)CC[C@@]4(C)[C@]3(C)CC[C@@H]12", "values": [{"measurement": "IC50", "setting": "[3]", "value": 301, "unit": "nM"}, {"measurement": "inhibition in vivo at 5 mg/kg", "setting": "[14]", "value": 43.2, "unit": "%"}, {"measurement": "inhibition in vivo at 5 mg/kg", "setting": "[15]", "value": 42.4, "unit": "%"}]}, {"smiles": "CC1(C)[C@@H](O[C@H]2O[C@H](CO)[C@@H](O)[C@H](O)[C@H]2O)CC[C@]2(C)[C@H]3C(=O)C=C4[C@H]5C[C@@](C)(CNC(=O)NCC6CCOCC6)CC[C@]5(C)CC[C@@]4(C)[C@]3(C)CC[C@@H]12", "values": [{"measurement": "IC50", "setting": "[3]", "value": 442, "unit": "nM"}, {"measurement": "inhibition in vivo at 5 mg/kg", "setting": "[1]", "value": 40.3, "unit": "%"}]}]}
